In brackets after ≈: the same amount, converted by molar mass. Entries after “also recorded” stand apart in the source; their conditions may differ. Where two headings read alike, the source gives them in different places.
Tests used:
DNA topoisomerase II = experiment: DNA Breakage Assay: topoisomerase II-mediated DNA breakage (linearized 32P-labeled PBR 322 plasmid, agarose gel); type: biochemical, calf; set-up: key to Topoisomerase II-mediated DNA breakage, extent of breakage: SB: strong breakage; MB: moderate breakage; WB: weak breakage; settings: for Topoisomerase II-mediated DNA breakage, extent of breakage: at the concentration given; for Topoisomerase II-mediated DNA breakage, Concentration: concentration of compound which cleaves the DNA to smaller fragments, 30 minutes incubation
Protocol: Antitumor activity was assayed using the DNA Breakage Assay described below.
The DNA breakage assay requires two major reagents: DNA topoisomerase II and radiolabeled DNA. DNA topoisomerase II (topo II) was isolated from calf thymus as described by B. D. Holligan, et al. in J. Biol. Chem., 260, 2475-2482 (1985). Pure enzyme or partially purified extracts enriched in topo II activity may be used. PBR 322 plasmid was used as the DNA substrate. This plasmid, which is isolated in the closed circular form, is first linearized using, a restriction enzyme which cuts the plasmid in only one place. The newly exposed ends of the plasmid are then labeled with the radionuclide, 32P, using standard techniques described by T. Maniatis, et al. in "Molecular Cloning", Cold Spring Harbor Press, p. 115 (1982).
The enzyme and the radiolabeled DNA are added together first, then drug is added. After an incubation period of 30 minutes, the mixtures are quenched using 1% SDS. The mixtures are then subjected to agarose gel electrophoresis which separates the full length, linear substrate DNA from any small fragments that might be formed as a consequence of drug action. Smaller fragments run with a higher mobility. The distribution of the DNA species in the gel is assessed by autoradiography as described by T. Maniatis, et al. in "Molecular Cloning", Cold Spring Harbor Press, p. 115 (1982).
DNA breakage activity is assessed based on the level of substrate lost, the level of DNA appearing as smaller pieces running faster in the gel, and the distribution of these smaller pieces in the gel. The last criterion is important since drug-induced DNA cleavage that is enzyme-mediated fragmentation results in specific banding patterns due to the fact that the enzyme binds to specific sequences along the DNA molecule. A definite banding pattern is thus indicative of topo II-mediated cleavage and correlates well with anti-tumor activity.

[1] = tested on: P388.D1 leukemia cell line; experiment: In vitro cytotoxicity assay (three day MTT microtiter assay), P388.D1; type: cell-based; settings: Mus musculus, P388D1, 72 h, read-out: In vitro tumor cell cytotoxicity (IC50), P388.D1
Protocol: (§1) The cytotoxity of the compounds of the present invention is illustrated in Table 6. IC50 's were measured in a colorimetric assay for cytotoxic activity against cultured cells according to the protocol described below:
(§2) A three day microtiter assay is used to measure the growth inhibition of cultured cells exposed to a range of drug concentrations. Metabolic activity is measured by the cell's ability to reduce the tetrazolium dye, MTT (3-(4,5-dimethylthiazol-2-yl)-2,5-diphenyltetrazolium bromide) to a quantifiable colored end-product, which absorbs at 570 nm in the visible spectrum. Surviving cells reduce the MTT dye.
(§3) Test compounds are dissolved in dimethyl sulfoxide (DMSO) and diluted, first with Earle's Balanced Salt Solution, followed by culture medium, to twice the highest concentration of compound to be tested. From this concentrated stock, two-fold serial dilutions are prepared in 96-well microtiter trays, each well containing twice the desired final concentration of compound. Each concentration is tested in triplicate and compared to triplicate drug-free controls.
(§4) The cells are grown in the same medium used for diluting the compounds. After harvesting by trypsinization*, viable cell counts are determined and cell density is adjusted to 25,000 cells/mL. Inoculum (0.1 mL), containing the cells, is then added to each well for a final concentration of 2,500 cells per well. Addition of the inoculum dilutes the test compounds to the desired final concentration.
(§5) *Adherent cells are harvested by trypsinization as follows:
(§6) 1. Remove the medium by aspiration.
(§7) 2. Rinse cell monolayer twice with Earle's Balanced Salt Solution.
(§8) 3. Add trypsin (0.05%)/EDTA (0.53 mM). For each 25 cm^2 use approximately 0.2 mL of solution, tilt to cover the monolayer, then withdraw trypsin leaving only a thin film of solution. Incubate at room temperature until cell monolayer detaches.
(§9) 4. When the cells have detached as determined by visual and/or microscopic observation, add medium containing fetal calf serum to stop the action of the trypsin and resuspend the cells. Triturate to aid dissociation of cell clumps.
(§10) 5. Determine the number of cells per milliliter by electronic cell counter (e.g. Coulter Counter) or by mixing an aliquot of cell suspension with Trypan Blue (0.4% in normal saline) and counting the viable cells using a hemacytometer.
(§11) Microtiter trays are incubated for three days at 36° C. in a humidified atmosphere containing 5% carbon dioxide.
(§12) After three days, 20 microtiters of 5 mg/mL MTT in phosphate-buffered saline solution is added to each well. Trays are returned to the incubator for two to four hours to allow the surviving cells to reduce the dye. Medium and unreduced dye are removed by aspiration. DMSO is added to each well to dissolve the water insoluble, colored end product of the dye reduction so that it can be measured spectrophotometrically at 570 nm. The IC50 is determined as the concentration of compound tested required to reduce the absorbance at 570 nm to 50% of non-drug treated control values.
^c P388 D1 is a leukemia cell line.

A549 cell line = experiment: In vitro cytotoxicity assay (three day MTT microtiter assay), A549; type: cell-based; settings: Homo sapiens, read-out: In vitro tumor cell cytotoxicity (IC50), A549
Protocol: (§13) IC50 's were measured in a colorimetric assay for cytotoxic activity against cultured cells according to the protocol described below:
as §2, §3, §4, §5, §6, §7, §8, §9, §10, §11
as §12, with “nm.” for “nm. The IC50 is determined as the concentration of compound tested required to reduce the absorbance at 570 nm to 50% of non-drug treated control values.”

[2] = tested on: HCT-8 colon cancer cell line; experiment: In vitro cytotoxicity assay (three day MTT microtiter assay), HCT-8; type: cell-based, human; settings: read-out: In vitro tumor cell cytotoxicity (IC50), HCT-8
Protocol: as §13, §2
Test compounds are dissolved in dimethyl sulfoxide (DMSO) and diluted, first with Earle's Balanced Salt Solution, followed by culture medium, to twice the highest concentration of compound to be tested. […]
The cells are grown in the same medium used for diluting the compounds. After harvesting by trypsinization*, viable cell counts are determined and cell density is adjusted to 25,000 cells/mL. […]
(§14) 4. When the cells have detached as determined by visual and/or microscopic observation, add medium containing fetal calf serum to stop the action of the trypsin and resuspend the cells. […]
After three days, 20 microtiters of 5 mg/mL MTT in phosphate-buffered saline solution is added to each well. […] DMSO is added to each well to dissolve the water insoluble, colored end product of the dye reduction so that it can be measured spectrophotometrically at 570 nm.

[3] = tested on: Lewis Lung carcinoma (LL); experiment: In vivo antitumor activity, Lewis Lung carcinoma (LL), tumor weight inhibition; set-up: species or system BDF1 mice; settings: IP, day 1 to day 9, determined on day 14
Protocol: (§15) The in vivo data presented in Table 7 was determined in BDF1 mice for two murine cancer models, using 6 to 10 animals per test group. In the case of Lewis Lung carcinoma (LL) the mice are inoculated subcutaneously (SC) in the axillary region with a puncture in the inguinal area with the tumor on day 0. The compound being tested is administered intraperitoneally (IP) from day 1 to day 9 for a total of nine injections. The tumors are weighed on day 14 and the weight inhibition expressed as the median weight ratio of treated (T) to control (C) tumors. In the case of P388 Leukemia cells, a suspension of diluted ascites fluid (0.1 mL) containing 1×10^6 cells is implanted IP into the mice on day 0 and the compound being tested is administered IP from day 1 to day 5 for a total of five injections. Survival was monitored for 30 days and the increased lifespan expressed as median survival time of treated (T) to control (C) mice.

P388 Leukemia = experiment: In vivo antitumor activity, P388 Leukemia, increased lifespan; set-up: species or system BDF1 mice; settings: IP, day 1 to day 5, survival monitored 30 days
Protocol: as §15

Hela cells = experiment: In vitro cytotoxicity assay (three day MTT microtiter assay), Hela; type: cell-based; settings: Homo sapiens, 72 h, read-out: In vitro tumor cell cytotoxicity (IC50), Hela
Protocol: as §13, §2, §3, §4, §5, §6, §7, §8, §9, §10, §11
as §12, with “nm.” for “nm. The IC50 is determined as the concentration of compound tested required to reduce the absorbance at 570 nm to 50% of non-drug treated control values.”

[4] = tested on: Lewis Lung Carcinoma (LLC1) cells; experiment: In vitro cytotoxicity assay (three day MTT microtiter assay), LLC1; type: cell-based, murine; settings: Mus musculus, LLC1, 72 h, read-out: In vitro tumor cell cytotoxicity (IC50), LLC1
Protocol: as §1, §2, §3, §4, §5, §6, §7
3. […]
as §14
After three days, 20 microtiters of 5 mg/mL MTT in phosphate-buffered saline solution is added to each well. […] DMSO is added to each well to dissolve the water insoluble, colored end product of the dye reduction so that it can be measured spectrophotometrically at 570 nm. […]

DNA topoisomerases = settings: in words; known antitumor drugs; cited from earlier work

CC1CN(c2c(F)cc3c(=O)c4c(=O)[nH]sc4n(C4CC4)c3c2F)CCN1 (centres unmarked) [Example 3]
Topoisomerase II-mediated DNA breakage, extent of breakage (DNA topoisomerase II): SB
Topoisomerase II-mediated DNA breakage, Concentration (DNA topoisomerase II): 32 µg/mL
IC50 [1]: 3.1 µg/mL (≈ 7.9 µM)
IC50 (A549 cell line; 72 h, A549, three days, MTT): 8.3 µg/mL (≈ 21.2 µM)
IC50 ([2]; 72 h, HCT-8 human colon cancer, three days, MTT): 14 µg/mL (≈ 35.7 µM)
LL (T/C), median weight ratio of treated to control tumors ([3]; 31.5 mg/kg): 0.81
LL (T/C), median weight ratio of treated to control tumors ([3]; 62.5 mg/kg): 0.75
LL (T/C), median weight ratio of treated to control tumors ([3]; 125 mg/kg): 0.59
LL (T/C), median weight ratio of treated to control tumors ([3]; 250 mg/kg): 0.35
P388 Leukemia % T/C, median lifespan of treated compared to control mice (P388 Leukemia; 31.5 mg/kg): 145%
P388 Leukemia % T/C, median lifespan of treated compared to control mice (P388 Leukemia; 62.5 mg/kg): 145%
P388 Leukemia % T/C, median lifespan of treated compared to control mice (P388 Leukemia; 125 mg/kg): 160%
P388 Leukemia % T/C, median lifespan of treated compared to control mice (P388 Leukemia; 250 mg/kg): 160%

CCn1c2s[nH]c(=O)c2c(=O)c2cc(F)c(N3CCNCC3)c(F)c21 [Example 14]
Topoisomerase II-mediated DNA breakage, extent of breakage (DNA topoisomerase II): MB
Topoisomerase II-mediated DNA breakage, Concentration (DNA topoisomerase II): 64 µg/mL
IC50 (Hela cells; HeLa): 4 µg/mL (≈ 10.9 µM)
IC50 [4]: 1.5 µg/mL (≈ 4.09 µM)

NC1CCN(c2c(F)cc3c(=O)c4c(=O)[nH]sc4n(C4CC4)c3c2F)C1 (centres unmarked) [Example 11]
Topoisomerase II-mediated DNA breakage, extent of breakage (DNA topoisomerase II): SB
Topoisomerase II-mediated DNA breakage, Concentration (DNA topoisomerase II): 32 µg/mL
IC50 (Hela cells; Hela cells, three days, MTT): 0.95 µg/mL (≈ 2.51 µM)
IC50 ([4]; Lewis Lung Carcinoma, three days, MTT): 0.52 µg/mL (≈ 1.37 µM)

O=C1c2c(O)ccc(O)c2C(=O)c2c(NCCNCCO)ccc(NCCNCCO)c21 [mitoxantrone]
effect on DNA topoisomerase-mediated DNA breakage-rejoining / cleavage (DNA topoisomerases): found to affect the breakage-rejoining reaction of mammalian DNA mediated by DNA topoisomerases

COc1cc([C@@H]2c3cc4c(cc3[C@@H](O[C@@H]3O[C@@H]5CO[C@@H](C)O[C@H]5[C@H](O)[C@H]3O)[C@H]3COC(=O)[C@H]23)OCO4)cc(OC)c1O [Etoposide, etoposide, reference compound]
IC50 (Hela cells; HeLa): 4 µg/mL (≈ 6.8 µM)
IC50 [1]: 0.05 µg/mL (≈ 0.085 µM)
IC50 (A549 cell line; A549, 72 h): 1 µg/mL (≈ 1.7 µM)
IC50 ([2]; Homo sapiens, HCT-8, 72 h): 0.68 µg/mL (≈ 1.16 µM)
effect on DNA topoisomerase-mediated DNA breakage-rejoining / cleavage (DNA topoisomerases): found to affect the breakage-rejoining reaction of mammalian DNA mediated by DNA topoisomerases; also recorded: known to act by inducing topo II mediated DNA cleavage

COc1cc([C@@H]2c3cc4c(cc3[C@@H](O[C@@H]3O[C@@H]5CO[C@@H](c6cccs6)O[C@H]5[C@H](O)[C@H]3O)[C@H]3COC(=O)[C@H]23)OCO4)cc(OC)c1O [teniposide]
effect on DNA topoisomerase-mediated DNA breakage-rejoining / cleavage (DNA topoisomerases): found to affect the breakage-rejoining reaction of mammalian DNA mediated by DNA topoisomerases; also recorded: known to act by inducing topo II mediated DNA cleavage

O=c1[nH]sc2c1c(=O)c1cc(F)c(N3CCNCC3)c(F)c1n2C1CC1 [Example 2]
Topoisomerase II-mediated DNA breakage, extent of breakage (DNA topoisomerase II): SB
Topoisomerase II-mediated DNA breakage, Concentration (DNA topoisomerase II): 32 µg/mL
IC50 (Hela cells; HeLa): 3.9 µg/mL (≈ 10.3 µM)
IC50 [4]: 0.99 µg/mL (≈ 2.62 µM)

Source: US5071848A, “Tricyclic quinoline antineoplastic agents” (Abbott Laboratories, priority 1989, dated 1991)
